What was measured:
[1] = system: HT-29 cells; test: calcium ion concentration in HT-29 cells (Fluo-8); type: cell-based; details: 10 uM, vs untreated group (vehicle), FIG. 76
Procedure: It is known from studies using GPR39 deficient mice that calcium signaling is involved in the growth of intestinal tissue cells by GPR39 (Phil. Trans. R. Soc. B. 2016, 371:20150420). Therefore, it was confirmed whether calcium signaling is involved in the cell growth promoted by HKFY-34.
Specifically, HT-29 cells were cultured in a 96-well black culture plate and then treated with HKFY-34, and the calcium ion concentration in the cells was measured using a Fluo-8 Direct™ calcium assay kit (Thermo Fisher Scientific). As a result, the calcium ion concentration in HT-29 cells was increased by HKFY-34 compared to the untreated group (vehicle) (FIG. 76).

[2] = system: HT-29 cells; test: tight junction factor (ZO-1, occludin) expression in HT-29 cells, qPCR and Western blot; type: cell-based; details: HT-29, different concentrations, vs vehicle
Procedure: It is known that GPR39 is involved in the protection of the gastrointestinal tract (Phil. Trans. R. Soc. B., 2016, 371:20150420). Therefore, in order to confirm the effect of HKFY-34 on the gastrointestinal tract protective function by GPR39, the promoting activity of HKFY-34 on tight junction was evaluated using HT-29 cells, which are important for intestinal tissue formation.
Specifically, the HT-29 cells were treated with HKFY-34 at different concentrations, and then the expression levels of mRNA (FIG. 77) and protein (FIG. 78) of ZO-1 and occludin, which are important factors of tight junction in intestinal barrier function, were confirmed through quantitative RT-PCR (qPCR) and Western blot.

[3] = system: C57BL6/J mice with ulcerative colitis induced by DSS; test: DSS-induced ulcerative colitis animal model; type: in vivo
Procedure: Specifically, an animal model of ulcerative colitis among inflammatory bowel diseases was prepared by feeding C57BL6/J mice (Central Lab. Animal Inc.) with water containing 3% DSS (dextran sodium sulfate).
The untreated (vehicle) mice were set as a control group, the mice fed with only DSS (vehicle+3% DSS) were set as a negative control group, and the mice administered intraperitoneally with SASP (sulfasalazine) at 50 mg/kg after treatment with DSS (SASP 50 mg/kg+3% DSS) were set as a positive control group. As a test group, the mice were intraperitoneally administered with HKFY-34 at 0.1, 1, and 10 mg/kg, respectively. HKFY-34 was administered once a day for 5 days, and during the administration period, the stool condition and body weight loss were measured in the subjects. […]

[4] = system: ulcerative colitis-induced wild type mice; test: DSS-induced ulcerative colitis in wild type littermate mice; type: in vivo
Procedure: (§1) In order to confirm the effect of HKFY-34 in an inflammatory bowel disease model using GPR39 as a target substance, a disease model of ulcerative colitis was prepared using GPR39 deficient mice (GPR39 knock out (KO), Gpr39^−/−). At this time, wild type mice born from a litter were set as a control group for each treated group of GPR39 deficient mice.
(§2) Specifically, an animal model of ulcerative colitis was prepared by feeding GPR39 deficient mice (Lexicon pharmaceuticals) and wild type mice with water containing 3% DSS in the same manner as in Experimental Example 7. GPR39 KO mice fed with only DSS (vehicle+3% DSS) were set as a negative control group, and GPR39 KO mice administered with HKFY-34 (10 mg/kg) (HKFY-34 10 mg/kg+3% DSS) were set as a test group. Intraperitoneal administration was performed once a day for 5 days.

[5] = system: ulcerative colitis-induced GPR39 deficient mice (Gpr39−/−); test: DSS-induced ulcerative colitis in GPR39 deficient mice; type: in vivo
Procedure: as §1, §2

[6] = biological target: T1, GPR39 (Homo sapiens, UniProt O43194); test: calcium influx assay system (aequorin, CV-1 cells); type: cell-based; set-up: host or cells: CV-1 fibroblast cell line, lipofectamine transfection; details: CV-1 transfected with hGPR39, Gαq
T1 sequence (O43194 1-453): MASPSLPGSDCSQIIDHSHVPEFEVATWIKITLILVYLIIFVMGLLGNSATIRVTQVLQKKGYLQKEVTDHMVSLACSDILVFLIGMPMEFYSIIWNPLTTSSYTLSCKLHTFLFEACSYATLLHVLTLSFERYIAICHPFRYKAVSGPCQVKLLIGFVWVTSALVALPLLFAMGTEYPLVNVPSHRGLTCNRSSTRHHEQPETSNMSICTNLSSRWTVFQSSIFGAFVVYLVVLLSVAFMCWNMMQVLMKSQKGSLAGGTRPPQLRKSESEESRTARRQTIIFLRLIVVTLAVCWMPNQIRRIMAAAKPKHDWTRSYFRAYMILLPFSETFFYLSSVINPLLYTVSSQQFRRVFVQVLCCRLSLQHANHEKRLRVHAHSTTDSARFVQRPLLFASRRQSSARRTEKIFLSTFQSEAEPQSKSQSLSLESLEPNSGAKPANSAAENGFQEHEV
Excerpt: After culturing, the degree of binding of calcium activated by activated GPR39 to aequrin was quantified using a luminometer (bottom in FIG. 73).

[7] = biological target: T1, GPR39; test: luciferase assay system (SRE luciferase reporter gene, CV-1 cells expressing GPR39); type: cell-based; set-up: expressed in transfected cells; host or cells: CV-1 fibroblast cell line (Korea Cell Line Bank), adenoviral transduction at 50 MOI
[8] = 0.1, 1 and 10 mg/kg intraperitoneal for 5 days, ELISA, vs negative control, FIG. 88
[9] = 0.1, 1 and 10 mg/kg intraperitoneal for 5 days, qPCR, FIG. 90
[10] = 0.1, 1 and 10 mg/kg intraperitoneal for 5 days, qPCR, vs negative control, FIG. 87
[11] = 10 mg/kg intraperitoneal for 5 days, FIG. 92
[12] = 10 mg/kg intraperitoneal for 5 days, FIG. 95
[13] = 10 mg/kg intraperitoneal once a day for 5 days, 3% DSS, FIG. 91

CCCCCCCC(=O)NCCCC[C@H](NC(=O)[C@@H](N)Cc1cn(C(c2ccccc2)c2ccccc2)cn1)C(=O)N[C@H](Cc1ccc(C)cc1)C(=O)N[C@@H](Cc1ccc(O)cc1)C(=O)O [HKFY-34, ((R)-2-((S)-2-((S)-2-amino-3-(1-benzhydryl-1H-imidazol-4-yl)propanamido)-6-octanamidohexanamido)-3-(p-tolyl)propanoyl)-L-tyrosine]
calcium ion concentration in HT-29 cells [1]: increased | protein expression level of ZO-1 ([2]; Western blot, FIG. 78): significantly increased by HKFY-34 in a dose-dependent manner | protein expression level of occludin ([2]; Western blot, FIG. 78): significantly increased by HKFY-34 in a dose-dependent manner | mRNA expression level of ZO-1 ([2]; qPCR, FIG. 77): significantly increased by HKFY-34 in a dose-dependent manner | mRNA expression level of occludin ([2]; qPCR, FIG. 77): significantly increased by HKFY-34 in a dose-dependent manner | concentration of IL-1β in the blood [3, 8]: significantly decreased | concentration of TNF-α in the blood [3, 8]: significantly decreased | mRNA expression level of ZO-1 in colon tissue [3, 9]: significantly increased by HKFY-34 in a dose-dependent manner | mRNA expression level of occludin in colon tissue [3, 9]: significantly increased by HKFY-34 in a dose-dependent manner | mRNA expression level of IL-1β in colon tissue [3, 10]: significantly decreased | mRNA expression level of IL-6 in colon tissue [3, 10]: significantly decreased | mRNA expression level of IL-8 in colon tissue [3, 10]: significantly decreased | mRNA expression level of TNF-α in colon tissue [3, 10]: significantly decreased | length contraction of the colon ([3]; 0.1, 1 and 10 mg/kg intraperitoneal for 5 days, vs negative control (DSS alone), FIG. 84): reduced by HKFY-34 in a dose-dependent manner | degree of damage caused by inflammation of the colon tissue (H&E staining) ([3]; 0.1, 1 and 10 mg/kg intraperitoneal for 5 days, vs negative control, FIG. 89): alleviated | body weight loss ([3]; 0.1, 1 and 10 mg/kg intraperitoneal once a day for 5 days, 3% DSS, FIG. 83): significantly inhibited by HKFY-34 in a dose-dependent manner | stool consistency (diarrhea) score ([3]; 0.1, 1 and 10 mg/kg intraperitoneal, score 0 to 3, FIG. 85): alleviated in a dose-dependent manner | blood in stool (fecal bleeding) score ([3]; 0.1, 1 and 10 mg/kg intraperitoneal, score 0 to 3, FIG. 86): alleviated in a dose-dependent manner | decrease in colon length [4, 11]: inhibited | damage due to inflammation of colon tissue (H&E staining) [4, 12]: reduced | body weight loss [4, 13]: inhibited | inhibitory effect on the reduction of colon length [5, 11]: not observed | effect of reducing inflammatory damage of colon tissue (H&E staining) [5, 12]: not observed | inhibitory effect on body weight loss [5, 13]: no inhibitory effect | effect of alleviating stool consistency ([5]; 10 mg/kg intraperitoneal, vs negative control, FIG. 93): not observed | effect of alleviating blood in stool ([5]; 10 mg/kg intraperitoneal, vs negative control, FIG. 94): not observed | Ca2+ influx assay ECmax (−fold induction over basal) [6]: 2.4 ± 4.59 fold induction over basal | ECmax (−fold induction over basal) [7]: 22.39 ± 4.59 fold induction over basal | Reporter gene assay ECmax (−fold induction over basal) [7]: 22.39 ± 4.59 fold induction over basal | activity level for GPR39 (in words) ([7]; comment on Table 3): higher activity level than other HKFY derivatives | activity and ECmax value for GPR39 (in words) ([7]; comment on Table 3, derivatives composed of d-Phe(methyl)): most excellent activity and high ECmax value

— patent US20250340591A1, “COMPOSITION FOR PREVENTING OR TREATING INFLAMMATORY BOWEL DISEASE CONTAINING NOVEL COMPOUND” (ANYGEN CO., LTD., priority 2021, published 2025)
